We go through 51 molecules from PubChem BioAssay AID1949 (Southern Research Institute, 2009).

This assay concerns M. tuberculosis H37Rv growth inhibition. The assay is described as follows: Confirmatory growth inhibition assay against Mycobacterium tuberculosis H37Rv, potency (AID 1949).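 Further: bacteria grown 7 days with compound before Alamar blue readout.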

In brackets after ≈: the same amount, converted by molar mass. Records with an inconclusive call do not appear. Activity calls are given as the source filed them. How the calls were made is not given here.

For the molecule `CC(=O)c1ccc(NC(=S)Nc2ccc(Br)c(Cl)c2)cc1`, the concentration for half-maximal inhibition (IC50) (in general, the concentration that gives 50% inhibition) was 2.14 µg/mL (≈ 5.58 µM).

In the case of `Cc1cc2ncn(CCOc3ccccc3C)c2cc1C`, the IC50 was 6.93 µg/mL (≈ 24.7 µM).

Consider `O=C(Oc1cccc2cccnc12)c1ccccc1F`, for which the IC50 is 2.7 µg/mL (≈ 10.1 µM).

With `Cc1ccc(NC(=O)NC23CC4(C)CC(C)(CC(C)(C4)C2)C3)cc1`, the IC50 is > 50 µg/mL (inactive).

For the molecule `Clc1ccc(OCc2ccccc2Cl)c(CNCc2ccccc2)c1`, the IC50 was 5.09 µg/mL (≈ 13.7 µM).

For the molecule `O=C(c1cccc(Cl)c1)N1N=C(c2ccc(Cl)cc2)CC1(O)C(F)(F)F` (stereo unspecified), the IC50 is 3.82 µg/mL (≈ 9.47 µM).

As for `O=S1(=O)C=CC2ON=C(c3c(Cl)cccc3Cl)C21` (stereo unspecified), the IC50 was 10.8 µg/mL (≈ 35.6 µM).

As to `CC(C)(C)c1ccc(C(=O)NC(=S)Nc2ccc(C(=O)O)cc2)cc1`, the IC50 was 0.64 µg/mL (≈ 1.8 µM).

For the molecule `N#CC1=C(SCC(=O)Nc2ccccc2[N+](=O)[O-])NC(=O)CC1c1ccc(F)cc1` (stereo unspecified), the IC50 is 6.76 µg/mL (≈ 15.9 µM).

Regarding `CC(C)COc1ccc(CNC(=S)NCc2ccccc2)cc1`, the IC50 is 4.39 µg/mL (≈ 13.4 µM).

Take `COc1cc(CNC(C)c2ccccc2)cc(Br)c1OCc1ccc(F)cc1` (stereo unspecified): the IC50 is 4.06 µg/mL (≈ 9.14 µM).

As for `O=C(CSc1ccc(Cl)cc1)Nc1ccc(Cl)c(C(F)(F)F)c1`, the IC50 was 3.18 µg/mL (≈ 8.36 µM).

Regarding `COc1cccc2cc(C(=O)Oc3ccc(Cl)cc3)c(=O)oc12`, the IC50 was > 50 µg/mL (inactive).

In the case of `O=C(NC(Nc1cccc([N+](=O)[O-])c1)C(Cl)(Cl)Cl)c1cccc(I)c1` (stereo unspecified), the IC50 was 11.7 µg/mL (≈ 22.8 µM).

For the molecule `CC(C)(C)c1ccc(OCC(=O)Nc2ccc3c(c2)OCCO3)c(Br)c1`, the IC50 is 4.25 µg/mL (≈ 10.1 µM).

As for `O=C(NCCCN1CCN(c2ccc(Cl)cc2)CC1)Nc1ccc(F)cc1`, the IC50 was 9.16 µg/mL (≈ 23.4 µM).

For the molecule `O=c1oc(-c2ccccc2F)nc2sc3c(c12)CCCC3`, the IC50 was > 50 µg/mL (inactive).

Take `COC(=O)c1ccc(/C=C/C(=O)c2cccs2)cc1`: the IC50 was 29.1 µg/mL (≈ 107 µM).

As to `CC(Sc1nnc(N)s1)C(=O)Nc1nc2c(s1)CCCC2` (stereo unspecified), the IC50 was 0.75 µg/mL (≈ 2.2 µM).

In the case of `C=CS(=O)c1sc(Cl)c(N2CCOCC2)c1[N+](=O)[O-]` (stereo unspecified), the concentration for half-maximal inhibition (IC50) is 5.77 µg/mL (≈ 17.9 µM).

Consider `O=C(Oc1cccc2cccnc12)c1cc2ccccc2oc1=O`, for which the IC50 is 3.06 µg/mL (≈ 9.64 µM).

Consider `CCOC(=O)c1c(-c2cccs2)csc1NC(=O)c1cc2ccccc2oc1=O`, for which the IC50 was 4.76 µg/mL (≈ 11.2 µM).

Turning to `COC(=O)COc1ccc(NC(=O)c2ccc3c(c2)C(=O)N(C(C)(C)C)C3=O)cc1`, the IC50 was 0.32 µg/mL (≈ 0.78 µM).

Regarding `O=C(Nc1ccc(-c2cc3ccccc3oc2=O)cc1)c1cc(-n2cnnc2)ccc1Cl`, the IC50 was 6.92 µg/mL (≈ 15.6 µM).

Turning to `COc1cccc(OCC(=O)c2ccc(Br)cc2)c1`, the IC50 was 0.37 µg/mL (≈ 1.15 µM).

With `CCCCOc1ccc(C(=O)NC23CC4CC(CC(C4)C2)C3)cc1`, the IC50 is 4.33 µg/mL (≈ 13.2 µM).

For `Cc1cccc(OCC(O)CN2CCN(C(c3ccccc3)c3ccccc3)CC2)c1C` (stereo unspecified), the IC50 was 2.94 µg/mL (≈ 6.83 µM).

For the molecule `COc1cccc(N2CCN(Cc3nc(N)nc(Nc4ccc(C)c(C)c4)n3)CC2)c1`, the IC50 is 2.82 µg/mL (≈ 6.72 µM).

Regarding `Nc1cc(N)c2cc(-c3ccccc3)oc2c1`, the IC50 is > 50 µg/mL (inactive).

Consider `CCOC(=O)COc1ccc(S(=O)(=O)Nc2cccc(SC)c2)cc1`, for which the IC50 was 3.69 µg/mL (≈ 9.67 µM).

As for `CN(C)C(=O)CSc1cccc2cccnc12`, the IC50 was 6.25 µg/mL (≈ 25.4 µM).

On to `CCN(c1ccccc1)c1ccc([N+](=O)[O-])c2nonc12`, for which the IC50 was 0.17 µg/mL (≈ 0.598 µM).

Take `O=C(CSc1ccc(Br)cc1)Nc1ccccc1`: the IC50 was 7.69 µg/mL (≈ 23.9 µM).

On to `COc1cc(CNCCCO)cc(Cl)c1OCc1ccc(Cl)cc1Cl`, for which the IC50 is 6.25 µg/mL (≈ 15.4 µM).

As to `CC1=NN(c2nc3ccccc3s2)C(=O)C1Cc1cccc2ccccc12` (stereo unspecified), the IC50 was 0.3 µg/mL (≈ 0.808 µM).

For the molecule `Cc1cc(C)cc(OCC(=O)c2ccc(Br)cc2)c1`, the IC50 is 6.8 µg/mL (≈ 21.3 µM).

In the case of `CCCCc1cc(=O)oc2cc(OCC(=O)OCc3ccccc3)c(Cl)cc12`, the IC50 is below 0.1 µg/mL.

With `CN1CCN(c2ccc(NC(=S)NC(=O)c3cc4ccccc4o3)cc2)CC1`, the IC50 is 10.7 µg/mL (≈ 27.2 µM).

As for `O=C(Nc1nc2ccccc2[nH]1)c1cccc(Cl)c1`, the IC50 is 10.4 µg/mL (≈ 38.3 µM).

Turning to `CCC(C)Oc1ccc(C(=O)NC(=S)Nc2ccc(NC(=O)c3ccco3)cc2)cc1` (stereo unspecified), the IC50 was 0.36 µg/mL (≈ 0.823 µM).

For the molecule `C=C1C2(C(=O)Nc3nc4ccc(Br)cc4s3)CCC(C2)C1(C)C` (stereo unspecified), the IC50 was 11.4 µg/mL (≈ 29.1 µM).

Consider `O=C(Oc1ccccc1)c1cccc(COC(=O)c2cc3ccccc3oc2=O)c1`, for which the IC50 was 15.8 µg/mL (≈ 39.5 µM).

In the case of `N#C/C(=C/c1ccc(N2CCCCC2)o1)c1cccc(F)c1`, the IC50 is 5.98 µg/mL (≈ 20.2 µM).

As for `O=C(NC1CCCCC1)c1ccc(COc2cccc3ccccc23)o1`, the IC50 was 4.65 µg/mL (≈ 13.3 µM).

Turning to `CC(=O)c1c(O)n(C)c(=S)n(C)c1=O`, the IC50 is > 50 µg/mL (inactive).

Regarding `Cn1c(Sc2ccc([N+](=O)[O-])c3cccnc23)nnc1-c1ccccc1`, the IC50 was 0.8 µg/mL (≈ 2.2 µM).

With `O=C(CCN1CCc2ccccc2C1)c1ccc2c(c1)OCCO2`, the IC50 was 14.9 µg/mL (≈ 46 µM).

As for `Cc1ccc2cccc(OCCOc3ccccc3C(C)C)c2n1`, the IC50 is 4.02 µg/mL (≈ 12.5 µM).

As to `CC1C(c2ccc(Cl)cc2)NC(c2ccc(Cl)cc2)C(C)C1(O)c1ccc(F)cc1` (stereo unspecified), the IC50 is > 50 µg/mL (inactive).

On to `COc1cc(C(=O)Nc2nc3c(s2)CCCC3)c(Br)c(OC)c1OC`, for which the IC50 was 2.8 µg/mL (≈ 6.55 µM).

Take `Cc1ccc(Cn2cnc3cc(C)c(C)cc32)cc1`: the IC50 was 8.24 µg/mL (≈ 32.9 µM).
